US4252970A, “6-Deoxyneamines” (The Upjohn Company, priority 1979, dated 1981)
Values after ≈ are worked out from the molar mass of the structure shown.

Experiments:
Type in all cases: cell-based
B. subtilis UC 564 = assay: standard disc plate assay, zones of inhibition (12.5 mm paper discs)
Description: (§1) The compounds of formulas (V, VII, IX, XI, XIV, XVI, and XIX) are active as antibacterials and can be used in various environments to erradicate or control susceptible microorganisms. Tables I and II set forth the in vitro antibacterial test results for representative compounds of the present invention. The results were obtained with a standard disc plate assay using 12.5 mm paper discs.

E. coli UC 51 = assay: as above
Description: as §1

P. vulgaris UC 93 = assay: as above
Description: as §1

S. aureus UC 80 = assay: as above
Description: as §1

K. pneumoniae UC 57 = assay: as above
Description: as §1

Ps. aeruginosa UC 95 [1] = assay: as above; settings: 1 mg/ml
Description: as §1

S. schottmuelleri UC 126 = assay: as above
Description: as §1

B. cereus UC 3145 = assay: as above; settings: 1 mg/ml
Description: as §1

P. rettgeri UC 339 = assay: standard microplate test in BHI Agar (MIC); settings: Providencia rettgeri, UC339, 37°, 20 hours, read-out: Minimum Inhibitory Concentration
Procedure: (§2) The compounds VII, XI, XVβ, XVα and XVI were tested in a standard microplate test in BHI (Brain Heart Infusion) Agar at a concentration of 1 mg./ml. and dilutions thereof at 37° incubation temperature. The end points are read at 20 hours. BHI Agar is supplied by Difco Laboratories, Detroit, Michigan, U.S.A. and has the following compositions: […]

S. pyogenes UC 152 = assay: standard microplate test in BHI Agar (MIC); settings: Streptococcus pyogenes, UC152, 37°, 20 hours, read-out: Minimum Inhibitory Concentration
Procedure: as §2

S. marcescens UC 131 = assay: standard microplate test in BHI Agar (MIC); settings: Serratia marcescens, UC131, 37°, 20 hours, read-out: Minimum Inhibitory Concentration
Procedure: as §2

Ps. aeruginosa UC 95 [2] = assay: standard microplate test in BHI Agar (MIC); settings: Pseudomonas aeruginosa, UC95, 37°, 20 hours, read-out: Minimum Inhibitory Concentration
Procedure: as §2

S. faecalis UC 694 = assay: standard microplate test in BHI Agar (MIC); settings: Enterococcus faecalis, UC694, 37°, 20 hours, read-out: Minimum Inhibitory Concentration
Procedure: as §2

K. pneumoniae UC 58 = assay: standard microplate test in BHI Agar (MIC); settings: Klebsiella pneumoniae, UC58, 37°, 20 hours, read-out: Minimum Inhibitory Concentration
Procedure: as §2

S. aureus UC 76 = assay: standard microplate test in BHI Agar (MIC); settings: Staphylococcus aureus, UC76, 37°, 20 hours, read-out: Minimum Inhibitory Concentration
Procedure: as §2

NC[C@H]1O[C@H](O[C@H]2[C@H](O)[C@@H](O)[C@H](N)C[C@@H]2N)[C@H](N)[C@@H](O)[C@@H]1O [Neamine]
Zones of Inhibition (B. subtilis UC 564; 0.1 mg/ml): 28 mm | Zones of Inhibition (B. subtilis UC 564; 1 mg/ml): 37 mm | Zones of Inhibition (E. coli UC 51; 0.1 mg/ml): 18 mm | Zones of Inhibition (E. coli UC 51; 1 mg/ml): 25 mm | Zones of Inhibition (P. vulgaris UC 93; 0.1 mg/ml): 15 mm | Zones of Inhibition (P. vulgaris UC 93; 1 mg/ml): 28 mm | Zones of Inhibition (S. aureus UC 80; 0.1 mg/ml): 18 mm | Zones of Inhibition (S. aureus UC 80; 1 mg/ml): 26 mm | Zones of Inhibition (K. pneumoniae UC 57; 0.1 mg/ml): 26 mm | Zones of Inhibition (K. pneumoniae UC 57; 1 mg/ml): 32 mm | Zones of Inhibition (Ps. aeruginosa UC 95 [1]): 18 mm | Zones of Inhibition (S. schottmuelleri UC 126; 0.1 mg/ml): 15 mm | Zones of Inhibition (S. schottmuelleri UC 126; 1 mg/ml): 23 mm | Zones of Inhibition (B. cereus UC 3145): 23 mm

NC[C@H]1O[C@H](O[C@H]2[C@H](O)C[C@H](N)C[C@@H]2N)[C@H](N)[C@@H](O)[C@@H]1O [6-deoxyneamine (XI), 6-Deoxyneamine]
MIC (P. rettgeri UC 339): 250 µg/mL (≈ 816 µM) | MIC (S. pyogenes UC 152): 15.6 µg/mL (≈ 50.9 µM) | MIC (S. marcescens UC 131): 250 µg/mL (≈ 816 µM) | MIC (Ps. aeruginosa UC 95 [2]): > 500 µg/mL | MIC (S. faecalis UC 694): > 500 µg/mL | MIC (K. pneumoniae UC 58): 7.8 µg/mL (≈ 25.5 µM)

C[C@@]1(O)C[C@H](N)C[C@H](N)[C@H]1O[C@H]1O[C@H](CN)[C@@H](O)[C@H](O)[C@H]1N [6-Deoxy-5-methyl-neamine]
MIC (P. rettgeri UC 339): > 500 µg/mL | MIC (S. aureus UC 76): 15.6 µg/mL (≈ 48.7 µM) | MIC (Ps. aeruginosa UC 95 [2]): > 500 µg/mL
